Assay results published in US9943569B2, “Method for preventing or reducing postoperative pulmonary complications” (OSAKA UNIVERSITY, priority 2015, dated 2018).

Key:
Type in all cases: in vivo, human
[1] = Plasma ghrelin concentration (enzyme immunoassay), randomized placebo-controlled phase II study
Description: Forty patients with primary esophageal cancer who underwent esophagectomy were selected to participate in a randomized, placebo-controlled phase II study. The patients were selected based on the following eligibility criteria: (1) thoracic esophageal cancer treated by performing radical esophagectomy with gastric tube reconstruction; (2) age 20 to 75 years; (3) adequate functioning of major organs; (4) no other active malignancies; and (5) provision of written informed consent. The following exclusions criteria were used: (1) preoperative diagnosis of esophageal cancer invasion to the aorta or trachea and other organs; (2) patients with multiple cancer; (3) severe respiratory problems, such as emphysema; (4) patients with prior ischemic heart disease; (5) liver cirrhosis or active hepatitis; (6) renal failure requiring dialysis treatment; (7) poorly controlled diabetes mellitus or disease requiring insulin treatment; (8) consecutive use of steroids; and (9) mental disorder. The patients were randomly divided into a ghrelin group and a placebo group at a 1:1 ratio. The approach for thoracic manipulation (i.e., open or thoracoscopic surgery) was used as the only stratification factor. Group allocation was performed before the initiation of surgery. The study was performed in a double-blind manner, and an independent researcher assessed outcomes.
(§1) The primary endpoint of this study was SIRS duration. The secondary endpoints were postoperative complications, serum C-reactive protein (CRP) and IL-6 levels, time required to attain a positive nitrogen balance, and changes in body weight and body composition. Postoperative complications were defined as adverse events caused by surgery. Patients received an intravenous continuous infusion of ghrelin (0.5 μg/kg/h) or placebo (pure saline) for 5 days postoperatively. Ghrelin was diluted to a final volume of 48 mL with saline, and the solution was administered at a rate of 2 mL/h by using an infusion pump through a central venous catheter inserted into the right subclavian vein. The same amount of ghrelin was administered via intravenous infusion during the 5 days of treatment; the dose was calculated on the basis of body weight on the day before surgery. Patients in the placebo group received the corresponding infusion containing pure saline using same procedure.
(§2) Blood sampling was performed at the following 7 time points: before surgery; 2 hours after initiation of surgery (during thoracotomy); 4 hours after initiation of surgery (during laparotomy); and on PODs 1, 3, 7, and 10. Complete blood count was performed every day for at least 10 PODs. If the leukocyte count was not within the normal range on POD10, complete blood counts were performed daily until it was within the normal range for 3 consecutive days. SIRS was diagnosed according to the criteria proposed by the American College of Chest Physicians/Society of Critical Care Medicine Consensus Conference^32 and when 2 or more of the following criteria were present: (1) body temperature less than 36° C. or more than 38° C.; (2) heart rate more than 90 beats per minute; (3) tachypnea with more than 20 breaths per minute or an arterial partial pressure of carbon dioxide less than 32 mm Hg; and (4) white blood cell count less than 4000 cells/mm^3, >12,000 cells/mm^3, or an immature (band) form more than 10%. Postoperative complications were evaluated according to the Clavien-Dindo classification.^33 Grade I required no treatment, grade II required medical therapy, grade Ma required interventions but not general anesthesia, grade Mb required general anesthesia, grade IV represented life-threatening states that required intensive care, and grade V represented death.
Sampled blood was immediately transferred into a chilled glass tube containing disodium ethylenediaminetetraacetic acid for plasma sampling or a separating agent for serum sampling, and the samples were then centrifuged at 4° C. […]

C-reactive protein (CRP) = test: Postoperative change in serum CRP; settings: n=20
Procedure: as §1, §2

[2] = tested on: patients undergoing esophagectomy; test: Laboratory tests, nutrition status and hormone assays, preoperative and POD7
Procedure: as §1, §2
(§3) Sampled blood was immediately transferred into a chilled glass tube containing disodium ethylenediaminetetraacetic acid for plasma sampling or a separating agent for serum sampling, and the samples were then centrifuged at 4° C. Plasma samples were mixed with a 10% volume of 1 N HCl and stored at −80° C. Serum samples were directly stored at −80° C. Sandwich-type enzyme immunoassay kits were used to measure levels of plasma active ghrelin, des-acyl ghrelin, and serum IL-6 according to the manufacturers' protocols (for ghrelin: Mitsubishi Kagaku Iatron, Inc, Tokyo, Japan; for IL-6: R&D Systems, Minneapolis, Minn.). Total plasma ghrelin levels were calculated as the active ghrelin level plus the des-acyl ghrelin level.^34 An Access 2 kit, a chemiluminescent enzyme immunoassay (Beckman Coulter, Inc, Brea, Calif.), was used to measure serum GH levels.

interleukin-6 (IL-6) = test: Postoperative change in serum IL-6 (enzyme immunoassay); settings: n=20
Procedure: as §1, §2, §3

[3] = tested on: patients undergoing esophagectomy; test: Changes in body weight and body composition (dual-energy X-ray absorptiometry); settings: preoperatively vs POD10
Procedure: Dual-energy X-ray absorptiometry (Hologic QDR-2000; Hologic Inc, Waltham, Mass.) was used to assess total body composition, including lean body weight and fat body weight, of all participants.^35 These measurements were performed preoperatively and 10 days postoperatively with the subject in the supine position.
However, in the postoperative test, rapid turnover proteins used as nutritional markers, such as, transthyretin, transferrin, and retinol binding protein, were more highly retained in the ghrelin group than in the placebo group. This finding is consistent with the findings in previous studies that ghrelin prevented nutritional deterioration. […] We compared changes in weight and body composition between the 2 groups. During the study period, changes in body weight were monitored as a percentage of the weight on admission (preoperation).

[4] = dual-energy X-ray absorptiometry

With `CCCCCCCC(=O)OC[C@H](NC(=O)[C@H](CO)NC(=O)CN)C(=O)N[C@@H](Cc1ccccc1)C(=O)N[C@@H](CC(C)C)C(=O)N[C@@H](CO)C(=O)N1CCC[C@H]1C(=O)N[C@@H](CCC(=O)O)C(=O)N[C@@H](Cc1cnc[nH]1)C(=O)N[C@@H](CCC(N)=O)C(=O)N[C@@H](CCCNC(=N)N)C(=O)N[C@H](C(=O)N[C@@H](CCC(N)=O)C(=O)N[C@@H](CCC(N)=O)C(=O)N[C@@H](CCCNC(=N)N)C(=O)N[C@@H](CCCCN)C(=O)N[C@@H](CCC(=O)O)C(=O)N[C@@H](CO)C(=O)N[C@@H](CCCCN)C(=O)N[C@@H](CCCCN)C(=O)N1CCC[C@H]1C(=O)N1CCC[C@H]1C(=O)N[C@@H](C)C(=O)N[C@@H](CCCCN)C(=O)N[C@@H](CC(C)C)C(=O)N[C@@H](CCC(N)=O)C(=O)N1CCC[C@H]1C(=O)N[C@@H](CCCNC(=N)N)C(=O)O)C(C)C` [ghrelin] the Total ghrelin ([1]; Postoperative (POD7)) was 60.2 ± 34.1 imol/mL, the Total ghrelin ([1]; Preoperative (baseline)) was 106.6 ± 76.8 imol/mL and the level at time molar at 2 h ([1]; human, plasma, iv, 0.5 ug/kg/h, 2 hours after the start of injection, 0.5 μg/kg/h continuous i.v. infusion) was 0.743 ± 0.191 nM. The level at time molar at 4 h ([1]; human, plasma, iv, 0.5 ug/kg/h, 4 hours after the start of injection, 0.5 μg/kg/h continuous i.v. infusion) was 0.711 ± 0.146 nM, the level at time molar at 1 postoperative day ([1]; human, plasma, iv, 0.5 ug/kg/h, POD1, during infusion 0.5 μg/kg/h) was 0.749 ± 0.143 nM and the level at time molar at 3 postoperative day ([1]; human, plasma, iv, 0.5 ug/kg/h, POD3, during infusion 0.5 μg/kg/h) was 0.737 ± 0.199 nM. For the same molecule, the level at time molar at 7 postoperative day ([1]; human, plasma, iv, 0.5 ug/kg/h, POD7, after administration of ghrelin) was 0.0602 ± 0.0341 nM, the level at time molar at 10 postoperative day ([1]; human, plasma, iv, 0.5 ug/kg/h, POD10, after administration of ghrelin) was 0.063 ± 0.031 nM and the level at time molar ([1]; human, plasma, iv, 0.5 ug/kg/h, before ghrelin administration (baseline), ghrelin group n=20) was 0.107 ± 0.0768 nM. The “Serum CRP” value (C-reactive protein (CRP); POD1) was 6.6 ± 2.0 mg/dL, the “Serum CRP” value (C-reactive protein (CRP); POD3) was 11.1 ± 6.6 mg/dL and the “Serum CRP” value (C-reactive protein (CRP); POD3, listed as Ghrelin) was 11.1 ± 6.6 mg/dL. The “Serum CRP” value (C-reactive protein (CRP); POD7) was 4.3 ± 3.6 mg/dL, the “Serum CRP” value (C-reactive protein (CRP); POD7, listed as Ghrelin) was 4.3 ± 3.6 mg/dL and the “Serum CRP” value (C-reactive protein (CRP); POD10) was 2.1 ± 2.3 mg/dL. The “Serum CRP” value (C-reactive protein (CRP); POD10, listed as Ghrelin) was 2.1 ± 2.3 mg/dL, the “Serum CRP” value (C-reactive protein (CRP); Preoperative (baseline)) was 0.3 ± 0.5 mg/dL and the Alanine aminotransferase ([2]; Postoperative (POD7)) was 40.6 ± 24.6 IU/L. For the same molecule, the Albumin ([2]; Postoperative (POD7)) was 2.99 ± 0.45 g/dL, the Asparate aminotransferase ([2]; Postoperative (POD7)) was 34.0 ± 15.9 IU/L and the Blood urea nitrogen ([2]; Postoperative (POD7)) was 19.3 ± 6.8 mg/dL. It also gave a Choline esterase ([2]; Postoperative (POD7)) of 154.1 ± 50.7 IU/L, a Creatinine ([2]; Postoperative (POD7)) of 0.77 ± 0.19 and a Growth hormone ([2]; Postoperative (POD7)) of 1.08 ± 1.16 ng/mL. The Hemoglobin ([2]; Postoperative (POD7)) was 10.1 ± 1.3 g/dL, the Leukocytes ([2]; Postoperative (POD7)) was 9068 ± 2633 /mm and the Lymphocytes ([2]; Postoperative (POD7)) was 1380 ± 495 /mm. The Retinol binding protein ([2]; Postoperative (POD7)) was 3.63 ± 1.56 mg/dL, the Total bilirubin ([2]; Postoperative (POD7)) was 1.25 ± 0.80 mg/dL and the Total protein ([2]; Postoperative (POD7)) was 5.66 ± 0.70 g/dL. It also gave a Transferrin ([2]; Postoperative (POD7)) of 146.4 ± 35.3 mg/dL, a Transthyretin ([2]; Postoperative (POD7)) of 20.1 ± 6.7 mg/dL and an Alanine aminotransferase ([2]; Preoperative (baseline)) of 18.3 ± 14.1 IU/L. For the same molecule, the Albumin ([2]; Preoperative (baseline)) was 3.78 ± 0.50 g/dL, the Asparate aminotransferase ([2]; Preoperative (baseline)) was 20.2 ± 7.2 IU/L and the Blood urea nitrogen ([2]; Preoperative (baseline)) was 15.1 ± 4.7 mg/dL. For the same molecule, the Choline esterase ([2]; Preoperative (baseline)) was 263.5 ± 83.8 IU/L, the Creatinine ([2]; Preoperative (baseline)) was 0.88 ± 0.21 and the Growth hormone ([2]; Preoperative (baseline)) was 0.51 ± 0.54 ng/mL. For the same molecule, the Hemoglobin ([2]; Preoperative (baseline)) was 11.3 ± 1.5 g/dL, the Leukocytes ([2]; Preoperative (baseline)) was 5472 ± 1970 /mm and the Lymphocytes ([2]; Preoperative (baseline)) was 1644 ± 585 /mm. The Retinol binding protein ([2]; Preoperative (baseline)) was 4.86 ± 1.71 mg/dL, the Total bilirubin ([2]; Preoperative (baseline)) was 0.58 ± 0.20 mg/dL and the Total protein ([2]; Preoperative (baseline)) was 6.44 ± 0.59 g/dL. The Transferrin ([2]; Preoperative (baseline)) was 198.1 ± 30.8 mg/dL, the Transthyretin ([2]; Preoperative (baseline)) was 28.8 ± 9.1 mg/dL and the “Serum IL-6” value (interleukin-6 (IL-6); POD1) was 95.2 ± 131.0 pg/mL. The “Serum IL-6” value (interleukin-6 (IL-6); POD3) was 43.1 ± 47.1 pg/mL, the “Serum IL-6” value (interleukin-6 (IL-6); POD3, listed as Ghrelin) was 43.1 ± 47.1 pg/mL and the “Serum IL-6” value (interleukin-6 (IL-6); POD7) was 15.3 ± 11.3 pg/mL. The “Serum IL-6” value (interleukin-6 (IL-6); POD10) was 14.2 ± 17.9 pg/mL, the “Serum IL-6” value (interleukin-6 (IL-6); Preoperative (baseline)) was 4.3 ± 4.8 pg/mL and the “percent decrease in total weight” value [3] was −3.5±2.7%. The “percent decrease in body fat weight” value [3, 4] was −3.2±5.0% and the “percent decrease in lean body weight” value [3, 4] was −4.2%±3.0.
